These results are taken from US10260105B2, “MiR-320e and colorectal cancer” (BAYLOR RESEARCH INSTITUTE, priority 2014, dated 2019).

The assay relates to stage II and III CRC. As to the kind of experiment: Kaplan-Meier DFS and OS estimates in validation cohort patients treated with 5-FU-based adjuvant chemotherapy. The conditions noted are these: 167 stage II and III CRC patients, 5-FU-based adjuvant chemotherapy for 6 months after tumor resection. The format is in vivo. As to the method:
Validation Patient Cohort. This group included a total of 237 CRC patients (65 stage II, 102 stage III, and 70 stage IV) that were enrolled as part of a clinical trial conducted at the Hospital Clinic, Barcelona, Spain. Patients in this clinical trial were enrolled between 1996 and 2008, and the median follow-up was 4.7 years in patients that were alive at last follow-up, and 3.5 years for all patients. All stage II and III patients were treated with 5-FU-based adjuvant chemotherapy following resection of the primary tumor; all stage IV patients were treated with 5-FU and oxaliplatin (Takahashi, et al., 2012). Normal colonic mucosa (n=20) from healthy individuals was obtained from the Pathology Department of the Hospital Clinic of Barcelona and included as controls. This study was approved by the Institutional Review Board (IRB) of Hospital Clinic, Barcelona, Spain, and a written informed consent was obtained from all patients.
Distributions in the validation cohort are presented as mean (SD) or median (range) depending on level of skewness in the data for continuous variables, or as counts (percentage) for categorical variables. Nonparametric tests (rank sum, Kruskal Wallace) were used to compare expression between groups. Kaplan Meier and Cox regression models were used to assess association with time to event outcomes that included overall survival (OS), defined as time from diagnosis to death, and disease free survival (DFS) defined as time from diagnosis to disease recurrence or death. Due to the scale of miR320e expression, hazard ratios are presented as the change in risk of a person at the 75th percentile relative to a person at the 25th percentile of miR-320e distribution. This can be interpreted as the increase in risk due to a patient moving from the middle of the bottom half of the miR-320e distribution to the middle of the top half of the distribution. Bootstrapping was used to calculate an optimism corrected c-index, analogous to the area under the receiver operating characteristic curve (Steyerberg, et al., 2011). A c-index of 0.5 denotes random predictions, whereas a c index of 1 denotes perfect predictions.
Higher expression miR320e is associated with poor outcome in patients with stage II and III CRC. To determine the potential prognostic significance of miR-320e expression, Cox regression models were utilized with the miRNA expression levels considered as continuous variables. There were 167 stage II and III CRC patients in the validation cohort with sufficient data for these analyses. All of these patients were treated with 5-FU-based adjuvant chemotherapy for 6 months subsequent to tumor resection. Of these patients, 65 out of 167 (38.9%) were stage II and the remainder were stage III. […]

With `O=c1[nH]cc(F)c(=O)[nH]1` [5-FU, 5-fluorouracil], where the note is “2 years”, the “2-year Kaplan-Meier DFS estimate” value is on record as 78.32% and the “2-year OS estimate” value is on record as 91.57%. In addition, under “5 years”, the “5-year Kaplan-Meier DFS estimate” value was 63.96% and the “5-year OS estimate” value is 78.52%.
